Measurements reported in PubChem BioAssay (NCI).
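Assay format: 96-well plates, 48-hour exposure. TGI denotes the concentration required for complete inhibition of growth.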

Experiments:
Assay in all cases: growth of human tumour cells (NCI), 48 h
UACC-62 melanoma = test system: UACC-62 melanoma
M14 melanoma = test system: M14 melanoma
K-562 leukemia = test system: K-562 leukemia
LOX IMVI melanoma = test system: LOX IMVI melanoma
HCC-2998 colon = test system: HCC-2998 colon
RXF 393 renal = test system: RXF 393 renal
SNB-75 CNS = test system: SNB-75 CNS
NCI-H23 lung = test system: NCI-H23 lung
MDA-MB-435 = test system: MDA-MB-435
RPMI-8226 leukemia = test system: RPMI-8226 leukemia
OVCAR-8 ovarian = test system: OVCAR-8 ovarian
IGROV1 ovarian = test system: IGROV1 ovarian
U251 CNS = test system: U251 CNS
EKVX NSCLC = test system: EKVX NSCLC
SK-MEL-5 melanoma = test system: SK-MEL-5 melanoma
HT29 colon = test system: HT29 colon
PC-3 prostate = test system: PC-3 prostate
UACC-257 melanoma = test system: UACC-257 melanoma
ACHN renal = test system: ACHN renal
OVCAR-3 ovarian = test system: OVCAR-3 ovarian

SMILES | TGI (UACC-62 melanoma) [µM] | TGI (M14 melanoma) [µM] | TGI (K-562 leukemia) [µM] | TGI (LOX IMVI melanoma) [µM] | TGI (HCC-2998 colon) [µM] | TGI (RXF 393 renal) [µM] | TGI (SNB-75 CNS) [µM] | TGI (NCI-H23 lung) [µM] | TGI (MDA-MB-435) [µM] | TGI (RPMI-8226 leukemia) [µM] | TGI (OVCAR-8 ovarian) [µM] | TGI (IGROV1 ovarian) [µM] | TGI (U251 CNS) [µM] | TGI (EKVX NSCLC) [µM] | TGI (SK-MEL-5 melanoma) [µM] | TGI (HT29 colon) [µM] | TGI (PC-3 prostate) [µM] | TGI (UACC-257 melanoma) [µM] | TGI (ACHN renal) [µM] | TGI (OVCAR-3 ovarian) [µM]
CC(=O)O/C=C\OC1CCCC1 | > 100 | > 100 | > 100 | > 100 | > 100 | > 100 | > 100 | > 100 | > 100 | > 100 | > 100 | > 100 | > 100 | > 100 | > 100 | > 100 | > 100 | > 100 | > 100 | > 100
COc1ccc(-n2c(=O)n(C)c(=O)n2-c2c(C)c(C)c(C)c(C)c2C)cc1 | > 100 | > 100 | > 100 | > 100 | > 100 | > 100 | > 100 | > 100 | > 100 | > 100 | > 100 | > 100 | > 100 | > 100 | > 100 | > 100 | > 100 | > 100 | > 100 | > 100
NC(N)=NS(=O)(=O)c1ccc(NNc2c3ccccc3nc3c(C(=O)Nc4ccc(S(N)(=O)=O)cc4)cccc23)cc1 | > 100 | > 100 | 69.9 | 29.4 | > 100 | > 100 | > 100 | > 100 | > 100 | > 100 | > 100 | > 100 | 83.9 | > 100 | > 100 | 56.1 | > 100 | > 100 | > 100 | > 100
N#CC(c1ccccc1)(c1ccccc1)[C@@H](c1ccccc1)[C@H](Cc1ccccc1)NS(=O)(=O)c1ccccc1 | > 100 | > 100 | > 100 | > 100 | > 100 | > 100 | > 100 | > 100 | > 100 | > 100 | > 100 | > 100 | > 100 | > 100 | > 100 | > 100 | > 100 | > 100 | > 100 | > 100
FC(F)(F)C1(C(F)(F)F)C2CCC3(CC(F)(F)C(F)(F)S3)C1C2 (stereo not given) | > 100 | > 100 | > 100 | 47.4 | > 100 | 84.3 | > 100 | > 100 | > 100 | 58.8 | > 100 | > 100 | > 100 | 96.6 | > 100 | > 100 | > 100 | 74.3 | 98.5 | 35.9
CC(C)(C)OC(=O)N/N=C(/N)c1ccccc1 | > 100 | > 100 | > 100 | > 100 | > 100 | > 100 | > 100 | > 100 | > 100 | > 100 | > 100 | > 100 | > 100 | > 100 | > 100 | > 100 | > 100 | > 100 | > 100 | > 100
COC(=O)c1ccc(NCc2cc(O)ccc2O)cc1O | 34 | 31.7 | > 79.3 | 32.1 | 26.7 | 21.6 | 22 | 27.9 | 23.2 | 4.93 | 19.8 | 27.8 | 24.2 | 27 | 26.4 | 34.4 | > 32.3 | 30.9 | 22.2 | 15.2
N#CC(c1ccccc1)N(CCc1ccccc1)C(=O)Oc1ccccc1 (stereo not given) | > 100 | > 100 | > 100 | > 100 | > 100 | > 100 | 74.7 | > 100 | > 100 | > 100 | > 100 | > 100 | > 100 | > 100 | > 100 | > 100 | > 100 | > 100 | > 100 | > 100
CC1C(=O)C23OC[C@@]1(C)C1(O)CC[C@@H](C)[C@]21CC3=O (stereo not given in full) | > 100 | > 100 | > 100 | > 100 | > 100 | > 100 | > 100 | > 100 | > 100 | > 100 | > 100 | > 100 | > 100 | > 100 | > 100 | > 100 | > 100 | > 100 | > 100 | > 100
CC1(C)C(=O)C2(C#N)CCC1C2 (stereo not given) | > 100 | > 100 | > 100 | > 100 | > 100 | > 100 | > 100 | > 100 | > 100 | > 100 | > 100 | > 100 | > 100 | > 100 | > 100 | > 100 | > 100 | > 100 | > 100 | > 100
